Entries after “also recorded” stand apart in the source; their conditions may differ.
How the values were obtained:
NOTCH3-ECD = molecular target: T1, NOTCH3-ECD (Homo sapiens, UniProt Q9UM47); assay: SPR peptide binding to immobilized recombinant NOTCH3-ECD
T1 construct: we purified the complete (recombinant) N3 ECD from human tissue culture cells; made in house; host or cells: PEC.3.30 (modified Per.E2A human cells), purified from culture supernatant
Description: (§1) The NOTCH3‐ECD protein was produced using PEC.3.30, which is modified Per.E2A cells. DMEM cell supernatant containing the NOTCH3‐ECD protein was collected for purification. The supernatant was loaded onto a HisTrap high‐performance (HP) column (Cytiva, Uppsala, Sweden) and eluted with a gradient buffer that included 500 mM imidazole, 25 mM HEPES at pH 7.5 and 500 mM NaCl. The pooled fractions were concentrated using a 50 000 molecular weight cut‐off (MWCO) centrifugal filter (Millipore, Merck KGaA, Darmstadt, Germany), resulting in a buffer of 10 mM imidazole, 25 mM HEPES at pH 7.5 and 100 mM NaCl. The concentrated protein solution was subsequently loaded onto a Superdex 200 16/600 gel filtration column (Cytiva, Uppsala, Sweden), which was equilibrated with 25 mM HEPES at pH 7.5 and 100 mM NaCl. Similar yields of purified protein were obtained across all samples. The purified proteins were snap‐frozen in liquid nitrogen immediately after purification and stored at −80 °C.
Peptide binding to the NOTCH3‐ECD protein using SPR was performed using a Biacore T200. The NOTCH3‐ECD protein was immobilized onto a Biacore NTA Series S Sensor Chip (Cytiva), at a concentration of 0.1 μg·μL^−1 using Nickel‐NTA capture‐coupling, resulting in approximately 3500 RU of immobilized protein. Peptides were introduced using the ‘Eject rack’ function, followed by analysis. […]

N3 receptor [1] = assay: Ligand-dependent N3 receptor cleavage (western blot); assay type: cell-based, human; conditions: 293 T cells, recombinant DLL1, peptides 10 μM unless otherwise stated
Description: (§2) Human embryonic kidney (HEK) 293 T cells (RRID:CVCL_0063) were cultured in Dulbecco's Modified Eagle Medium (DMEM) (Gibco, Grand Island, NY, USA) supplemented with 10% fetal bovine serum (FBS) (Gibco). This cell line was obtained from the American Type Culture Collection (ATCC, Manassas, VA, USA). T‐ALL cell lines (kindly provided by Professor Jan Cools – VIB, Leuven): MOLT4 (RRID:CVCL_0013), ALL SIL (RRID:CVCL_1805), DND‐41 (RRID:CVCL_2022), HPB‐ALL (RRID:CVCL_1820), SUP‐T1 (RRID:CVCL_1714) and JURKAT (RRID:CVCL_0065), were cultured in Roswell Park Memorial Institute (RPMI) 1640 medium (Gibco) supplemented with 10% FBS (Gibco). Cells were maintained in a 5% CO2, 37 °C humidified incubator, tested monthly for mycoplasma contamination using a MycoAlert kit (Lonza, Walkersville, MD, USA), and checked for authenticity, in the last 3 years, by an in‐house service using short tandem repeat (STR) profiling. Transfections, lentivirus production and cell infections, western blotting and co‐immunoprecipitations have been described previously. […] RNA isolation, first‐strand cDNA synthesis and analysis of expression of transcripts by quantitative (q) PCR were performed as described previously. […] Expression of these proteins was determined using antibodies directed against either the coding region of the protein or the epitope tag. […]

N3 receptor [2] = assay: N3 downstream NOTCH target gene expression (real-time qPCR); assay type: cell-based, human; conditions: 293 T cells with HA-N3, recombinant DLL1, 3 h, n = 3
Description: as §2

N2 receptor [3] = assay: Cell surface ligand-N2 receptor binding assay; assay type: cell-based, human; conditions: Fig. 4D; n = 3
Description: (§3) Confluent 10‐cm dishes of 293 T cells stably expressing HA epitope‐tagged NOTCH receptors were washed with ice‐cold phosphate buffered saline (PBS)/bovine serum albumen (BSA) (1 mg·mL^−1). Cells were stimulated with 50 μL of ligand (0.5 mg·mL^−1) in the presence of 1.5 mL of PBS/BSA (1 mg·mL^−1) for 1 h, with gentle shaking, at 4 °C. Cells were washed once with PBS. Cells were incubated with crosslinkers in the presence of 2 mL of ice‐cold PBS for 15 min, with gentle shaking at 4 °C: 0.27 μM disuccinimidyl suberate (DSS) (Pierce, Rockford, IL, USA) and 0.07 μM bis‐sulfosuccinimidyl suberate (BS3) (Pierce). Cells were washed once with ice‐cold detachment buffer (10 mM Tris–HCl pH 7.4, 1 mM EDTA pH 7.4, 10% glycerol), scraped off the plates in 1 mL of detachment buffer and transferred to Eppendorf tubes. Cell pellets were lysed in 1 mL of solubilization buffer (125 mM NaCl, 10 mM Tris–HCl pH 7.4, 1 mM EDTA pH 7.4, 1% Triton X‐100) on ice for 30 min and centrifuged at 13000 r.p.m. for 10 min. Supernatants were incubated with HA antibody (Covance, Princeton, NJ, USA) overnight at 4 °C. 50 μL of washed (4×) protein A/G beads (50% solution) was added, and samples were incubated for 45 min at 4 °C. The beads were washed four times with solubilization buffer. 50 μL of sample buffer was added and samples were boiled for 5–10 min prior to gel electrophoresis. […]

N3 receptor [4] = assay: N3 transactivation luciferase reporter assay; assay type: cell-based, human
Description: (§4) Reporter assays were performed as previously described. Briefly, stable cell lines expressing epitope‐tagged ligands and receptors were established via infection of cells with lentiviruses harbouring the appropriate ligand/receptor cDNA followed by selection with the encoded antibiotic (puromycin or neomycin). For transactivation assays, cells co‐expressing receptor and reporter were cocultured with cells stably expressing ligand alone (to enable transactivation). […] For each experiment, cells were seeded in triplicate in 12‐well plates. The NOTCH luciferase reporter harboured 10× Recombination Signal Binding Protein for Immunoglobulin kappa J (RBPJ) consensus DNA‐binding sites, and was cotransfected with thymidine kinase promoter‐driven Renilla luciferase control plasmid. Additionally, transfection efficiencies (routinely > 90%) were determined through visualization of cotransfected plasmid encoding the Tomato fluorescence reporter. Cells were lysed 36 h postplating, and luciferase activity was measured using a luciferase assay substrate (Promega). Luciferase activity was normalized by measuring Renilla luciferase activity (Promega). Where indicated, assays were performed in the presence or absence of 10 μM DAPT (Sigma‐Aldrich, St. Louis, MO, USA). Receptor and ligand protein levels were determined by western blotting. Experiments were performed three times. […]

N2 receptor [5] = assay: N2 transactivation luciferase reporter assay; assay type: cell-based, human; conditions: Fig. 4A,E, n = 3
Description: as §4

N3 ECD homodimer = assay: Nondenaturing gel: disruption of purified N3 ECD homodimer; assay type: biochemical, human; conditions: nondenaturing acrylamide gel, purified HIS-tagged N3 ECD; n = 3
Description: as §1

NOTCH receptors = assay: Endogenous HEY expression in 293 T cells expressing NOTCH receptors (real-time qPCR); assay type: cell-based, human; conditions: 3 h, DAPT 20 μM, n = 3 (Fig. 4F)
Description: as §2

N3 receptor [6] = assay: N3 receptor dimerization (immobilized HIS-N3 with HA-N3, western blot); assay type: biochemical, human; conditions: peptides 10 μM unless otherwise stated, n = 3
Description: as §2, with “(Gibco).” for “(Gibco). Cells were maintained in a 5% CO2, 37 °C humidified incubator, tested monthly for mycoplasma contamination using a MycoAlert kit (Lonza, Walkersville, MD, USA), and checked for authenticity, in the last 3 years, by an in‐house service using short tandem repeat (STR) profiling. Transfections, lentivirus production and cell infections, western blotting and co‐immunoprecipitations have been described previously.”
(§5) Domains for recombinant protein production were cloned into the pET 28a vector in‐frame to an N‐terminal HIS6 epitope. […] Protein yields were determined by Bradford assay (Bio‐Rad, Hercules, CA, USA), and relative protein integrity and purity were determined by SDS/PAGE and Colloidal Blue staining (Invitrogen, Carlsbad, CA, USA). […] Proteins were separated by SDS/PAGE and associated proteins were detected by western blotting.

N3 receptor [7] = assay: Cell surface ligand-N3 receptor binding assay; assay type: cell-based, human; conditions: 293 T cells stably expressing HA-tagged N3, crosslinked, western blot; n = 3
Description: as §3

N2 receptor [8] = assay: Ligand-dependent N2 receptor cleavage (western blot); assay type: cell-based, human; conditions: 293 T cells with HA-N2, recombinant DLL1; n = 3
Description: as §2

N2 receptor [9] = assay: N2 receptor dimerization (immobilized HIS-N2 with HA-N2, western blot); assay type: biochemical, human; conditions: HIS-N2 on nickel beads with HA-N2, western blot; n = 3
Description: as §2, with “(Gibco).” for “(Gibco). Cells were maintained in a 5% CO2, 37 °C humidified incubator, tested monthly for mycoplasma contamination using a MycoAlert kit (Lonza, Walkersville, MD, USA), and checked for authenticity, in the last 3 years, by an in‐house service using short tandem repeat (STR) profiling. Transfections, lentivirus production and cell infections, western blotting and co‐immunoprecipitations have been described previously.”
as §5

T1 sequence (Q9UM47 40-1643 limits assumed): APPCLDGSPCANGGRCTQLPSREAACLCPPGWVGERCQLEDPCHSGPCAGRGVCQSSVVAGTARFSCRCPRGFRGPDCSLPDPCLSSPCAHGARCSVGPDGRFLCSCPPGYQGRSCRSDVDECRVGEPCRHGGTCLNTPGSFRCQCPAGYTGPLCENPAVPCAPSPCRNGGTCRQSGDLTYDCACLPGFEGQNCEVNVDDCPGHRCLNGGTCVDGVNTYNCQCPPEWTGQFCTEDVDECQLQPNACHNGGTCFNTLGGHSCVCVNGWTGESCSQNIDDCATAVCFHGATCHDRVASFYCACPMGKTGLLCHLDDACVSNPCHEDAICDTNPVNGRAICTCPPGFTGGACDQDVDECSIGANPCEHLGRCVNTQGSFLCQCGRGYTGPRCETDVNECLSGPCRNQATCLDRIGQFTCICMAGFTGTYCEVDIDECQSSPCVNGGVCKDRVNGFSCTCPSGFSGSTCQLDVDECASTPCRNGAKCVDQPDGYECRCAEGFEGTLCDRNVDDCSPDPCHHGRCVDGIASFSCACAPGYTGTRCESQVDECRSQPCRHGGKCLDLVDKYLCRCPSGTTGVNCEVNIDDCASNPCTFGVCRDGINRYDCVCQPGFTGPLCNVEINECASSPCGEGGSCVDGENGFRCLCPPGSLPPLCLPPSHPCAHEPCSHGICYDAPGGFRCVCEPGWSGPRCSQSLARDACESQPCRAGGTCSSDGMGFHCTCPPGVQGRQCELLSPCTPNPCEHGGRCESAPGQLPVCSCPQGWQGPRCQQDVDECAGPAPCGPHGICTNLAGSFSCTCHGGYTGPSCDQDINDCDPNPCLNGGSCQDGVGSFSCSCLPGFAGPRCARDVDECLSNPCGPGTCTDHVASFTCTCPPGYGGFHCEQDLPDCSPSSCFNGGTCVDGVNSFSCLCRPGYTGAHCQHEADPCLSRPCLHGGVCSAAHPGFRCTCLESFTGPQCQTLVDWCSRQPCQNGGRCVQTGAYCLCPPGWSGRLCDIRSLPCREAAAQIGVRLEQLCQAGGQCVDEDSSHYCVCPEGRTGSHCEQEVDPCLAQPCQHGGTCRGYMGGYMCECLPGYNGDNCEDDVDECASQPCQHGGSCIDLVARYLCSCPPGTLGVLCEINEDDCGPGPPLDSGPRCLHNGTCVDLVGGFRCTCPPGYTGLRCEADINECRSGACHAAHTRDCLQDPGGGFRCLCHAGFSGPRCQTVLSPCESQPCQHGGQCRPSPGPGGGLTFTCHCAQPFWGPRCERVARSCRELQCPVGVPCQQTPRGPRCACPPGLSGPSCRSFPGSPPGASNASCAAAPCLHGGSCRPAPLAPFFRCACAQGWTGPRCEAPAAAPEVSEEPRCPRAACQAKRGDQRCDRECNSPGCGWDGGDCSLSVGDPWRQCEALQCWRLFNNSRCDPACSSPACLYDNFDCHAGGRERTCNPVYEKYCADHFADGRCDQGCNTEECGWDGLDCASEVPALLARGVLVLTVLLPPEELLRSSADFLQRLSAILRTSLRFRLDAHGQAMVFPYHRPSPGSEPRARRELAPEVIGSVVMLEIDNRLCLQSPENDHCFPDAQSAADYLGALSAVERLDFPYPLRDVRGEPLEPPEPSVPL

Sequence	K D (range in words) (NOTCH3-ECD; pure recombinant N3 ECD purified from human cells)	inhibition of ligand-dependent N3 receptor cleavage (N3 receptor [1])	inhibition of downstream NOTCH target genes (N3) (N3 receptor [2])	effect on stable N2 receptor-ligand binding at the cell surface (N2 receptor [3])	selectivity for N3 over N2 and N1 (N3 receptor [4]; Fig. 4E)	inhibition of N3 transactivation (NOTCH reporter) (N3 receptor [4]; coculture with ligand cells, lysed 36 h postplating, peptides 10 μM unless otherwise stated, n = 3)	effect on N2 receptor transactivation / downstream gene activation (N2 receptor [5])	disruption of N3 ECD homodimer (N3 ECD homodimer)	suppression of NOTCH-driven gene expression compared to DAPT (NOTCH receptors)	inhibition of N3 receptor dimerization (N3 receptor [6])	block of stable ligand-receptor binding at the cell surface (N3) (N3 receptor [7])	effect on N2 receptor cleavage (N2 receptor [8])	effect on N2 receptor dimerization (N2 receptor [9])	binding to N3 ECD (NOTCH3-ECD; control peptide with motif core mutated to glycine)
EKYCADHFADGR [N34, N3 peptide (…) centred on the helix encompassing the core dimerization motif]	low nM range	robustly inhibit	robustly inhibit	little detectable effect	exquisite selectivity for N3 (and not N2 or N1	robustly inhibit; also recorded: inhibited N3 receptor activity	little detectable effect	disrupted	as efficiently as the generic gamma secretase inhibitor (GSI), DAPT	robustly inhibit	efficiently blocked	little detectable effect	little detectable effect	
EKYGGGHFADGR [control peptide, control peptide (…), core of the dimerization motif mutated (to glycine), reference compound]														failed to bind efficiently to the N3 ECD
